Reference: ChEMBL document CHEMBL4834484, “Identification of isoform/domain-selective fragments from the selection of DNA-encoded dynamic library” (Bioorg Med Chem, 2021)

Key:
[1] = molecular target: T1, NAD-dependent protein deacetylase sirtuin-1 (Homo sapiens, UniProt Q96EB6); assay: Inhibition of human recombinant SIRT1 assessed as inhibition of substrate deacetylation using Gln-Pro-Lys-Lys- (epsilon acetyl) AMC peptide as substrate in presence of NAD+ measured by fluorescence based analysis
T1 sequence (Q96EB6 whole entry): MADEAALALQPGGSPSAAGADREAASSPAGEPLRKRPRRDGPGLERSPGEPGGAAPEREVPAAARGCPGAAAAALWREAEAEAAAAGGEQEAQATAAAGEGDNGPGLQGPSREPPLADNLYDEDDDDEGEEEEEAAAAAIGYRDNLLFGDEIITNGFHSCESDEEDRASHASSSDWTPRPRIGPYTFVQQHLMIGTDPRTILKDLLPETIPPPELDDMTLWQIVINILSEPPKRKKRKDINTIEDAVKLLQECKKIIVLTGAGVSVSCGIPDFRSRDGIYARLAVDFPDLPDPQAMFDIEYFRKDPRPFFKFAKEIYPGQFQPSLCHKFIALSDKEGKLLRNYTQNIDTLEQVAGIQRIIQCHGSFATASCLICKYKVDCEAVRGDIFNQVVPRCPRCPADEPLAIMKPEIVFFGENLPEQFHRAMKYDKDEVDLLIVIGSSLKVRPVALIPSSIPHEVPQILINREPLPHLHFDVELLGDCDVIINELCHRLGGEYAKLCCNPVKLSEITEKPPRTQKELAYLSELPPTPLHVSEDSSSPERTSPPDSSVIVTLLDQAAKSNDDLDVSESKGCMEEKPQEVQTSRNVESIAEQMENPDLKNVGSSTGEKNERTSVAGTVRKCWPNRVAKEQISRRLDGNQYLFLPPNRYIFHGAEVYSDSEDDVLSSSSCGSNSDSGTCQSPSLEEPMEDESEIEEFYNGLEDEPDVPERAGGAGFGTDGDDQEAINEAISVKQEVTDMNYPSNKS

[2] = molecular target: T2, NAD-dependent protein deacetylase sirtuin-2 (Homo sapiens, UniProt Q8IXJ6); assay: Inhibition of human recombinant SIRT2 assessed as inhibition of substrate deacetylation using Gln-Pro-Lys-Lys- (epsilon acetyl) AMC peptide as substrate in presence of NAD+ measured by fluorescence based analysis
T2 sequence (Q8IXJ6 whole entry): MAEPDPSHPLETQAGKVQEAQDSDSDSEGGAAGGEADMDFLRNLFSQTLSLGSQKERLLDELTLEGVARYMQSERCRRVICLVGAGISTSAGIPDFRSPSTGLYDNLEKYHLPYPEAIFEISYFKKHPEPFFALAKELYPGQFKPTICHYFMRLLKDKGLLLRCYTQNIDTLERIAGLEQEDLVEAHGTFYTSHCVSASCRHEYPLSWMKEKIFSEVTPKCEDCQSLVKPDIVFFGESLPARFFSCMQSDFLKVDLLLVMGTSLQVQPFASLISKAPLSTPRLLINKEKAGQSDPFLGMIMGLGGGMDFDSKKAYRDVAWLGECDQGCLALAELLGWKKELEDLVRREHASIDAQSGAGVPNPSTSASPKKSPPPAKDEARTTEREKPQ

[3] = molecular target: T3, Bromodomain-containing protein 4 (Homo sapiens, UniProt O60885); assay: Displacement of SGRG-K(Ac)-GG-K(Ac)-GLG-K(Ac)-GGA-K(Ac)-RHRKVGG-K(Biotin) from Europium chelated human BRD4 bromodomain 1 (49 to 170 residues) measured after 2 hrs by TR-FRET assay
[4] = molecular target: T3, Bromodomain-containing protein 4; assay: Displacement of SGRG-K(Ac)-GG-K(Ac)-GLG-K(Ac)-GGA-K(Ac)-RHRKVGG-K(Biotin) from Europium chelated human BRD4 bromodomain 2 (342 to 460 residues) measured after 2 hrs by TR-FRET assay
[5] = molecular target: T2, NAD-dependent protein deacetylase sirtuin-2; assay: Binding affinity to chip-immobilized recombinant human SIRT2 measured after 300 secs by surface plasmon resonance method
[6] = molecular target: T4, NAD-dependent protein deacetylase sirtuin-3, mitochondrial (Homo sapiens, UniProt Q9NTG7); assay: Inhibition of human recombinant SIRT3 assessed as inhibition of substrate deacetylation using Gln-Pro-Lys-Lys- (epsilon acetyl) AMC peptide as substrate in presence of NAD+ measured by fluorescence based analysis
T4 sequence (Q9NTG7 whole entry): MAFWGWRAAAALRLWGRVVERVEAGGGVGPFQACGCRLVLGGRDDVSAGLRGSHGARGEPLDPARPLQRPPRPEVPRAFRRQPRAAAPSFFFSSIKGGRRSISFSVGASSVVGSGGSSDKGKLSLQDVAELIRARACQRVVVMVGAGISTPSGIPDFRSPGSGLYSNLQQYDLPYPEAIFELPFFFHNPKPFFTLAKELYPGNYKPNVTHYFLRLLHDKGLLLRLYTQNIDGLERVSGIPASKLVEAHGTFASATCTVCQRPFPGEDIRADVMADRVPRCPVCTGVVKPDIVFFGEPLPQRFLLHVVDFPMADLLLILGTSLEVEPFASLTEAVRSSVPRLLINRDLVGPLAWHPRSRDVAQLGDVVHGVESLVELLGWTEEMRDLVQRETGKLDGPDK

[7] = molecular target: T1, NAD-dependent protein deacetylase sirtuin-1; assay: Binding affinity to chip-immobilized recombinant human SIRT1 measured after 300 secs by surface plasmon resonance method
[8] = molecular target: T4, NAD-dependent protein deacetylase sirtuin-3, mitochondrial; assay: Binding affinity to chip-immobilized recombinant human SIRT3 measured after 300 secs by surface plasmon resonance method

Compound	IC50 [2]	Ki [2]	also measured
O=C1CC(C(=O)NCCCNCC(=O)C2CC3CCC2C3)c2ccccc21 (configuration not stated)	–	–	IC50 [1]: 330 µM; Ki [1]: 203 µM
CC1COc2c(N3CCN(C)CC3)c(F)cc3c(=O)c(C(=O)NCc4ccc(CNC(=O)c5cn6c7c(c(N8CCN(C)CC8)c(F)cc7c5=O)OCC6C)cc4)cn1c23 (configuration not stated)	186 µM	54 µM	–
CNC(=O)c1cn2c3c(c(N4CCN(C)CC4)c(F)cc3c1=O)OCC2C (configuration not stated)	–	–	IC50 [3]: 1130 µM; IC50 [4]: 321 µM
O=C1CC(C(=O)NCCOCCOCCNCC(=O)C2CC3CCC2C3)c2ccccc21 (configuration not stated)	–	–	IC50 [1]: 298 µM; Ki [1]: 183 µM
O=C1CC(C(=O)NCc2ccc(CNCC(=O)C3CC4CCC3C4)cc2)c2ccccc21 (configuration not stated)	–	–	IC50 [1]: 195 µM; Ki [1]: 120 µM
O=C1CC(C(=O)NCCOCCOCCOCCNCC(=O)C2CC3CCC2C3)c2ccccc21 (configuration not stated)	–	–	IC50 [1]: 1050 µM; Ki [1]: 645 µM
COc1cc(CC(=O)NCCOCCOCCOCCNC(=O)c2cccc(-c3cccnc3)c2)cc(OC)c1OC	93 µM	27 µM	–
O=C(NCCOCCOCCNC(=O)c1cccc(-c2cccnc2)c1)c1cccc(-c2cccnc2)c1	99 µM	29 µM	–
CC1COc2c(N3CCN(C)CC3)c(F)cc3c(=O)c(C(=O)NCCCCCCNC(=O)CCc4nc(-c5ccncc5)no4)cn1c23 (configuration not stated)	107 µM	31 µM	–
COc1cc(CC(=O)NCCOCCOCCNC(=O)c2cn3c4c(c(N5CCN(C)CC5)c(F)cc4c2=O)OCC3C)cc(OC)c1OC (configuration not stated)	32 µM	9 µM	Kd [5]: 32 µM
COc1cc(CC(=O)NCc2ccc(CNC(=O)c3cn4c5c(c(N6CCN(C)CC6)c(F)cc5c3=O)OCC4C)cc2)cc(OC)c1OC (configuration not stated)	985 µM	286 µM	–
CC1COc2c(N3CCN(C)CC3)c(F)cc3c(=O)c(C(=O)N(C)CCCN4c5ccccc5CCc5ccccc54)cn1c23 (configuration not stated)	–	–	IC50 [3]: 227 µM; IC50 [4]: 41 µM
CSCC(=O)N(C)CCCN1c2ccccc2CCc2ccccc21	–	–	IC50 [3]: 1320 µM; IC50 [4]: 153 µM
CC1COc2c(N3CCN(C)CC3)c(F)cc3c(=O)c(C(=O)NCCCCCC(=O)N(C)CCCN4c5ccccc5CCc5ccccc54)cn1c23 (configuration not stated)	–	–	IC50 [3]: 107 µM; IC50 [4]: 30 µM
CC1COc2c(N3CCN(C)CC3)c(F)cc3c(=O)c(C(=O)NCc4ccc(CNC(=O)CCc5nc(-c6ccncc6)no5)cc4)cn1c23 (configuration not stated)	193 µM	56 µM	–
CNC(=O)CSC	–	–	IC50 [4]: 1160 µM
O=C1CC(C(=O)NCCCCCCNCC(=O)C2CC3CCC2C3)c2ccccc21 (configuration not stated)	938 µM	272 µM	IC50 [6]: 621 µM; Ki [6]: 447 µM; IC50 [1]: 78 µM; Ki [1]: 48 µM

Compound	IC50 [2]	Ki [2]	also measured
O=C(NCCCCCCNC(=O)c1cccc(-c2cccnc2)c1)c1cccc(-c2cccnc2)c1	39 µM	12 µM	Ki [1]: 73 µM; Kd [7]: 118 µM; Kd [5]: 40 µM
CSCC(=O)NCCCCCC(=O)N(C)CCCN1c2ccccc2CCc2ccccc21	–	–	IC50 [3]: 972 µM; IC50 [4]: 231 µM
COc1cc(CC(=O)NCCCCCCNC(=O)c2cccc(-c3cccnc3)c2)cc(OC)c1OC	44 µM	13 µM	Ki [6]: 351 µM; Ki [1]: 85 µM; Kd [7]: 139 µM; Kd [5]: 44 µM; Kd [8]: 488 µM
COc1cc(CC(=O)NCCCNC(=O)c2cn3c4c(c(N5CCN(C)CC5)c(F)cc4c2=O)OCC3C)cc(OC)c1OC (configuration not stated)	39 µM	11 µM	Kd [5]: 39 µM
COc1cc(CC(=O)NCCOCCOCCOCCNC(=O)c2cn3c4c(c(N5CCN(C)CC5)c(F)cc4c2=O)OCC3C)cc(OC)c1OC (configuration not stated)	7 µM	2 µM	Kd [5]: 7 µM
COc1cc(CC(=O)NCCCCCCNC(=O)c2cn3c4c(c(N5CCN(C)CC5)c(F)cc4c2=O)OCC3C)cc(OC)c1OC (configuration not stated)	33 µM	9 µM	Kd [5]: 33 µM
CC1COc2c(N3CCN(C)CC3)c(F)cc3c(=O)c(C(=O)NCCCNC(=O)c4cn5c6c(c(N7CCN(C)CC7)c(F)cc6c4=O)OCC5C)cn1c23 (configuration not stated)	303 µM	88 µM	–
O=C(NCc1ccc(CNC(=O)c2cccc(-c3cccnc3)c2)cc1)c1cccc(-c2cccnc2)c1	91 µM	26 µM	–
CC1COc2c(N3CCN(C)CC3)c(F)cc3c(=O)c(C(=O)NCCOCCOCCNC(=O)CCc4nc(-c5ccncc5)no4)cn1c23 (configuration not stated)	186 µM	54 µM	–
COc1cc(CC(=O)NCc2ccc(CNC(=O)c3cccc(-c4cccnc4)c3)cc2)cc(OC)c1OC	25 µM	7 µM	Ki [6]: 282 µM; Kd [5]: 25 µM; Kd [8]: 392 µM
COc1cc(CC(=O)NCCCNC(=O)c2cccc(-c3cccnc3)c2)cc(OC)c1OC	299 µM	87 µM	–
CC1COc2c(N3CCN(C)CC3)c(F)cc3c(=O)c(C(=O)NCCCNC(=O)CCc4nc(-c5ccncc5)no4)cn1c23 (configuration not stated)	52 µM	15 µM	–
CC1COc2c(N3CCN(C)CC3)c(F)cc3c(=O)c(C(=O)NCCOCCOCCOCCNC(=O)c4cn5c6c(c(N7CCN(C)CC7)c(F)cc6c4=O)OCC5C)cn1c23 (configuration not stated)	316 µM	92 µM	–
COc1cc(CC(=O)NCCOCCOCCNC(=O)c2cccc(-c3cccnc3)c2)cc(OC)c1OC	97 µM	28 µM	–
CC1COc2c(N3CCN(C)CC3)c(F)cc3c(=O)c(C(=O)NCCOCCOCCOCCNC(=O)CCc4nc(-c5ccncc5)no4)cn1c23 (configuration not stated)	24 µM	7 µM	Kd [5]: 24 µM
CC1COc2c(N3CCN(C)CC3)c(F)cc3c(=O)c(C(=O)NCCOCCOCCNC(=O)c4cn5c6c(c(N7CCN(C)CC7)c(F)cc6c4=O)OCC5C)cn1c23 (configuration not stated)	383 µM	111 µM	–
O=C(NCCOCCOCCOCCNC(=O)c1cccc(-c2cccnc2)c1)c1cccc(-c2cccnc2)c1	22 µM	6 µM	Ki [6]: 214 µM; Ki [1]: 35 µM; Kd [7]: 56 µM; Kd [5]: 22 µM; Kd [8]: 297 µM
